# Tests used:
# [1] = biological target: T1, α-NAGA mutant (SEQ ID NO:8) (Homo sapiens, UniProt P17050, A191L/S188E); assay: Screening of inhibitor (1): remaining enzyme activity of α-NAGA mutant with 4-methylumbelliferyl α-D-galactopyranoside; format: biochemical; settings: 400 μM compound, pH 4.6, 37° C., 30 minutes
# T1 sequence (P17050 with tags, fused parts or gaps S188E/A191L): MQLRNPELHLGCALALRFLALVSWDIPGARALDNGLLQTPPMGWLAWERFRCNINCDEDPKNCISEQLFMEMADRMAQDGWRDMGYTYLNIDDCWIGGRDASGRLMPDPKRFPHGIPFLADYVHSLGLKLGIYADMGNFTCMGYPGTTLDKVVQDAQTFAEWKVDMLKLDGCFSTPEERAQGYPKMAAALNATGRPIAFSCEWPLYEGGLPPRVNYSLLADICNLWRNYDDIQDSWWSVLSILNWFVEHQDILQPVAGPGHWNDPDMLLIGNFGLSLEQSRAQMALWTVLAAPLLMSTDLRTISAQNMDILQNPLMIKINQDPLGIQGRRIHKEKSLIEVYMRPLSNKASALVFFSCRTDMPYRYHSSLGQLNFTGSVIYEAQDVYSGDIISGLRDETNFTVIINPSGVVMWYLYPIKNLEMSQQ
# Description: The screening of inhibitor was carried out as follows: An inhibitor candidate compound dissolved in purified water or DMSO was added to 20 ng of an α-NAGA mutant (SEQ ID NO:8) and 4 mM 4-methylumbelliferylα-D-galactopyranoside dissolved in 0.1 M phosphate-citrate buffer (pH 4.6) such that a concentration of the inhibitor candidate compound became 0.8, 1, or 400 μM, and the mixture thus obtained was caused to react at 37° C. for 30 minutes (the total amount was 50 μl). After the reaction, 950 μl of 0.2 M glycine buffer (pH 10.7) was added to stop the reaction. Then, released 4-methylumbelliferone was measured at an excitation wavelength of 355 nm and at a fluorescence wavelength of 460 nm with use of Wallac 1420 ARVO MX Multilabel Counter. Remaining enzyme activity was calculated based on the assumption that an enzyme activity value obtained in a case where purified water or DMSO is added instead of the inhibitor candidate compound is 100%.
# α-NAGA mutant [2] = biological target: T2, α-NAGA mutant (Homo sapiens, UniProt P17050, A191L/S188E); assay: Screening of inhibitor (2): inhibition of enzyme activity of α-NAGA mutant; format: biochemical; settings: 0.1, 1, or 10 μM compound, pH 4.6, 37° C., 30 minutes; FIG. 1
# T2 sequence (P17050 with tags, fused parts or gaps S188E/A191L): T1 sequence (P17050 with tags, fused parts or gaps S188E/A191L)
# Description: The second screening was carried out as follows: DGJ, GBS, N-C-DGJ, N-DGJ, or N-HE-DGJ dissolved in purified water or DMSO was added to 25 ng of an α-NAGA mutant and 4 mM 4-methylumbelliferylα-D-galactopyranoside dissolved in 0.1 M phosphate-citrate buffer (pH 4.6) such that a concentration of DGJ, GBS, N-C-DGJ, N-DGJ, or N-HE-DGJ became 0.1, 1, or 10 μM, and the mixture thus obtained was caused to react at 37° C. for 30 minutes (the total amount was 50 μl). After the reaction was finished, 950 μl of 0.2 M glycine buffer (pH 10.7) was added to stop the reaction. Then, released 4-methylumbelliferone was measured at an excitation wavelength of 355 nm and at a fluorescence wavelength of 460 nm with use of Wallac 1420 ARVO MX Multilabel Counter. Remaining enzyme activity was calculated based on the assumption that an enzyme activity value obtained in a case where purified water or DMSO is added instead of the inhibitor candidate compound is 100%. FIG. 1 is a view illustrating inhibition of enzyme activity of an α-NAGA mutant by DGJ.
# α-NAGA mutant [3] = biological target: T2, α-NAGA mutant; assay: Heat stability test carried out by measuring enzyme activity; format: biochemical; settings: 1 or 10 μM DGJ, FIG. 3
# Description: 1 μM or 10 μM of DGJ was added to 10 μg/ml of an α-NAGA mutant solution which had been prepared by dissolving an α-NAGA mutant in a 10 mM sodium phosphate buffer (pH 7.5) or a 25 mM sodium acetate buffer (pH 5.2) (the total amount was 100 μl). Then, incubation was carried out at 42° C. for the solution using the 10 mM sodium phosphate buffer (pH 7.5) and at 55° C. for the solution using the 25 mM sodium acetate buffer (pH 5.2). Then, the incubated solution was sampled by 10 μl at points in time which were respectively 0 and 60 minutes after the start of the incubation. Each of the samples thus obtained was immediately added to 40 μl of a 0.1 M phosphate-citrate buffer (pH 4.6) in which a 5 mM substrate was dissolved, and enzyme activity was measured. Remaining activity is indicated based on an assumption that an enzyme activity value after 0 minutes is 100%. FIG. 3 is a view showing a result of heat stability test for confirming inhibitory activity of DGJ with respect to an α-NAGA mutant.
# recombinant α-GAL = biological target: T3, recombinant α-GAL (Homo sapiens, UniProt P06280); settings: simultaneous administration to a patient of Fabry disease; cited from earlier work
# T3 sequence (P06280 32-429): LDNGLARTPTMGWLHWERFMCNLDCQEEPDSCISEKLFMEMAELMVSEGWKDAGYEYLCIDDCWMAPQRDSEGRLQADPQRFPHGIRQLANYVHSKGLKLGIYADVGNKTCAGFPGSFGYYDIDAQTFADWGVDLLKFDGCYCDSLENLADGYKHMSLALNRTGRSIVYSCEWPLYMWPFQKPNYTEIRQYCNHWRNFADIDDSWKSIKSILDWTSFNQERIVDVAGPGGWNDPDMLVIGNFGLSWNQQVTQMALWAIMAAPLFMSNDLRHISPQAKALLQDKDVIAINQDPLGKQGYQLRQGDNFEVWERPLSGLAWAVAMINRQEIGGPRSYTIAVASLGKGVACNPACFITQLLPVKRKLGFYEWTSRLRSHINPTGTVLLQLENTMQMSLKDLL
structure (smiles),measurement,setting,value
"OCC1NCC(O)C(O)C1O [DGJ, (2R,3S,4R,5S)-2-(hydroxymethyl)piperdine-3,4,5-triol]",inhibition effect on α-NAGA mutant (remaining enzyme activity),[1],the inhibition effect was seen
same,inhibition of enzyme activity of an α-NAGA mutant (remaining enzyme activity),α-NAGA mutant [2],had the effect of inhibiting activity of an α-NAGA mutant
same,heat stability of the α-NAGA mutant (remaining activity after 60 minutes),"α-NAGA mutant [3]; acidic condition pH 5.2, 55° C., higher improvement than at neutral pH",heat stability of the α-NAGA mutant was improved
same,heat stability of the α-NAGA mutant (remaining activity after 60 minutes),"α-NAGA mutant [3]; neutral condition pH 7.5, 42° C.",heat stability of the α-NAGA mutant was improved
same,stabilization of administered recombinant α-GAL in the blood,recombinant α-GAL,recombinant α-GAL was stabilized

# From US20200115698A1, “PHARMACEUTICAL COMBINATION FOR TREATMENT OF FABRY DISEASE AND USE THEREOF” (MEIJI PHARMACEUTICAL UNIVERSITY, priority 2017, published 2020)
